Data on nine compounds can be found in patent publication US20220348584A1, “PERK INHIBITING INDOLINYL COMPOUNDS” (HiberCell, Inc., priority 2019, published 2022).

For test [1], the target named is T1, EIF2AK3 (PERK) catalytic domain (amino acids 536-1116) (Homo sapiens, UniProt Q9NZJ5).
T1 construct: EIF2AK3 (PERK) catalytic domain (amino acids 536-1116); purchased Invitrogen, Carlsbad, Calif
T1 sequence (Q9NZJ5 536-1116): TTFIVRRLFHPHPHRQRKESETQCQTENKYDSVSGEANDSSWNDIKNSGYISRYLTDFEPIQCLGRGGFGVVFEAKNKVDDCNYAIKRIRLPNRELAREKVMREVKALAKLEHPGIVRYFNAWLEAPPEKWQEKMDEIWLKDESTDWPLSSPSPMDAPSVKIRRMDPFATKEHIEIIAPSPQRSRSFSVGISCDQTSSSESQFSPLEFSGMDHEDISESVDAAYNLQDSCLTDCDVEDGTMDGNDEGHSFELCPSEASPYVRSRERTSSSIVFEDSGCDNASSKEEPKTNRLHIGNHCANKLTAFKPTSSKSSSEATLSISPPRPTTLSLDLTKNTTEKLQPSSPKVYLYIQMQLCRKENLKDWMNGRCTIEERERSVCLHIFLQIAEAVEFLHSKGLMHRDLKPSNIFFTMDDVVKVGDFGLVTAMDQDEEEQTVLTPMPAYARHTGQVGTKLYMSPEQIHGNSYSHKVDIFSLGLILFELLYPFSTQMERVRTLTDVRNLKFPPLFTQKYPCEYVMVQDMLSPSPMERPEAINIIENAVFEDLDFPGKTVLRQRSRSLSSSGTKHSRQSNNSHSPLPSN
Put plainly: PERK In Vitro Activity Assay (Isolated), TR-FRET kinase assay. The settings on record: isolated PERK enzyme, 1.5 μM ATP. Type of test: biochemical. How it is done: Perform TR-FRET kinase assays in the absence or presence of inhibitors in a reaction buffer consisting of 50 mM HEPES, pH 7.5, 10 mM MgCb, 1.0 mM EGTA, and 0.01% Brij-35, and 100-200 nM GFP-eIF2a substrate. […] Add test compound, initiate the reaction by addition of enzyme, and incubate at room temperature for 45 minutes. Stop the reaction by addition of EDTA to a final concentration of 10 mM, add Terbium-labelled phospho-eIF2a antibody at a final concentration of 2 nM, and incubate for 90 minutes. Monitor the resulting fluorescence in an EnVison® Multilabel reader (PerkinElmer, Waltham, Mass.).

The test system of test [2] is HEK293-EGFP-eIF2a cells. Put plainly: PERK Cellular Assay (TR-FRET, GFP-eIF2α, tunicamycin-induced ER stress). Particulars: Homo sapiens, 2 h. Type of test: cell-based, human. How it is done: Stable cell lines were created in HEK293 cells using lentiviral particles harboring an expression vector for GFP-eIF2α. Cells were selected using puromycin and enriched using fluorescence activated cell sorting against GFP. HEK293-EGFP-eIF2a cells were plated at 5000 cells/well in 384-well assay plates and incubated overnight at 37° C., 5% CO2. Inhibitor compounds were added to the wells by Echo acoustic dispensing and incubated for 30 minutes at 37° C., 5% CO2 prior to induction of ER stress by addition of tunicamycin to […] for 2 hours. Cells were lysed and TR-FRET was measured in an EnVision plate reader (PerkinElmer). FRET ratio data was normalized to signal from lysates treated with DMSO vehicle control and plotted as percent inhibition against 10-point; 3-fold dilution series of inhibitors. IC50 values were calculated using 4-parameter logistical fitting in XLFit.

The mark [3] stands for this setting: HEK293-EGFP-eIF2a cells, tunicamycin 2 hours, TR-FRET, read-out: Cellular eIF2α IC50.

SMILES strings stand for the structures. Where two headings read alike, the source gives them in different places.

`CCc1cnc(N)c2c(-c3ccc4c(c3F)CCN4C(=O)Cc3cccc(C)n3)nc(C)n12` [Example 25, 1-(5-(8-amino-5-ethyl-3-methylimidazo[1,5-a]pyrazin-1-yl)-4-fluoroindolin-1-yl)-2-(6-methylpyridin-2-yl)ethanone]: the IC50 in test [1] (read-out: Biochemical IC50) and in test [2] (setting [3]) was 0.051 to 0.1 µM each time.

Take `Cc1cccc(CC(=O)N2CCc3c2ccc(-c2nc(C)n4cc(C)nc(N)c24)c3F)n1` [Example 26, 1-(5-(8-amino-3,6-dimethylimidazo[1,5-a]pyrazin-1-yl)-4-fluoroindolin-1-yl)-2-(6-methylpyridin-2-yl)ethanone]: the IC50 in test [1] (read-out: Biochemical IC50) and in test [2] (setting [3]) was 0.101 to 0.25 µM each time.

For the compound `Cc1cccc(CC(=O)N2CCc3c2ccc(-c2nc(C)n4c(C)c(C)nc(N)c24)c3F)n1` [Example 27, 1-(5-(8-amino-3,5,6-trimethylimidazo[1,5-a]pyrazin-1-yl)-4-fluoroindolin-1-yl)-2-(6-methylpyridin-2-yl)ethanone], the IC50 in test [1] (read-out: Biochemical IC50) is 0.051 to 0.1 µM; in test [2] (setting [3]) it was 0.251 to 0.5 µM.

For the compound `Cn1cc(-c2ccc3c(c2F)CCN3C(=O)Nc2ccccc2)c2c(N)ncnc21` [Example 28, 5-(4-amino-7-methyl-7H-pyrrolo[2,3-d]pyrimidin-5-yl)-4-fluoro-N-phenylindoline-1-carboxamide], the IC50 in test [1] (read-out: Biochemical IC50) is 0.101 to 0.25 µM; in test [2] (setting [3]), 2 to 3 µM.

As to `Cc1cccc(CC(=O)N2CCc3c2ccc(-c2cnc(N)c(C(=O)NC(C)C)c2)c3F)n1` [Example 29, 2-amino-5-(4-fluoro-1-(2-(6-methylpyridin-2-yl)acetyl)indolin-5-yl)-N-isopropylnicotinamide], the results for the IC50 in test [1] (read-out: Biochemical IC50) and in test [2] (setting [3]) were 0.051 to 0.1 µM and 0.501 to 1 µM, respectively.

For `Cn1cc(-c2ccc3c(c2F)CCN3C(=O)C(F)(F)c2ccccc2)c2c(N)ncnc21` [Example 30, 1-(5-(4-amino-7-methyl-7H-pyrrolo[2,3-d]pyrimidin-5-yl)-4-fluoroindolin-1-yl)-2,2-difluoro-2-phenylethanone], the figures for the IC50 in test [1] (read-out: Biochemical IC50) and in test [2] (setting [3]) were 0.026 to 0.05 µM and 0.101 to 0.25 µM, respectively.

With `Cc1cc(C)n(CC(=O)N2CCc3c2ccc(-c2cn(C)c4ncnc(N)c24)c3F)n1` [Example 31, 1-(5-(4-amino-7-methyl-7H-pyrrolo[2,3-d]pyrimidin-5-yl)-4-fluoroindolin-1-yl)-2-(3,5-dimethyl-1H-pyrazol-1-yl)ethanone], the IC50 in test [1] (Biochemical IC50 (μM)) and in test [2] (read-out: Cellular eIF2α IC50 (μM)) was 0.001 to 0.025 µM in each case.

On to `Cc1cc(C)n(CC(=O)N2CCc3c2ccc(-c2cn(C)c4nc(C)nc(N)c24)c3F)n1` [Example 32, 1-(5-(4-amino-2,7-dimethyl-7H-pyrrolo[2,3-d]pyrimidin-5-yl)-4-fluoroindolin-1-yl)-2-(3,5-dimethyl-1H-pyrazol-1-yl)ethanone], for which the values for the IC50 in test [1] (read-out: Biochemical IC50) and in test [2] (setting [3]) were 0.001 to 0.025 µM and 0.051 to 0.1 µM, respectively.

As to `Cc1nc(-c2ccc3c(c2)CCN3C(=O)Cc2cc(F)cc(C(F)(F)F)c2)c2c(N)ncc(Cl)n12` [Example 33, 1-(5-(8-amino-5-chloro-3-methylimidazo[1,5-a]pyrazin-1-yl)indolin-1-yl)-2-(3-fluoro-5-(trifluoromethyl)phenyl)ethanone], the half-maximal inhibitory concentration (IC50) in test [1] (read-out: Biochemical IC50) and in test [2] (setting [3]) was 0.001 to 0.025 µM in each case.
